# Read-outs that look alike come from different tables or passages of the source.
# Legend:
# COX-2 mRNA = COX-2 mRNA expression (RT-PCR) in LPS-stimulated macrophages; format: cell-based, murine; details: 75 μg/mL
# Description: For each RT-PCR analysis, 2 μg of total RNA isolated with TRIZOL® Reagent was used to synthesize 1st-strand cDNA using […]™ II Reverse Transcriptase (Invitrogen). The iNOS and COX-2 genes were amplified and analyzed using specific oligonucleotide primers and PCR reactions by method described in Chiang et al. Br J Pharmacol 2005; 146:352-63).
# It was further examined whether dLGG affects COX-2 mRNA and protein expression using RT-PCR and immunoblotting. Cells were treated with dLGG for 1 hour, then LPS (1 μg/mL) was added for 18 hours. Total cellular protein (20 μg) was subjected to immunoblotting. Quantification of COX-2 mRNA and protein expression involved normalization to GA3PDH by densitometry.
# iNOS protein = iNOS protein expression (immunoblotting) in LPS-stimulated RAW264.7 cells; format: cell-based, murine; details: LPS 1 μg/mL 18 h
# Description: (§1) Total cellular proteins and the specific cytosolic and nuclear proteins were prepared using methods described in Chiang et al. Protein content was measured by the Bradford method (Bio-Rad). Protein was resolved by 5-20% gradient SDS-PAGE and subjected to immunoblotting using enhanced chemiluminescence reagents (ECL, Amersham). Monoclonal antibodies against PARP (Transduction Laboratories, Lexington, Ky.), GA3PDH (Biogenesis, Poole, UK), α-tubulin (Oncogene Science, Cambridge, UK), COX-2 (Cayman Chemical), phospho-(Ser32)-IκBα, phospho-IKKα(Ser180)/IKKβ(Ser181) (New England Biolabs, Beverly, Mass.), iNOS, IκBα, IKKα/β or NF-κB p65 (RelA) (Santa Cruz Biotechnology, Santa Cruz, Calif.) were used.
# RAW264.7 cells were treated with the indicated concentrations of dLGG for 1 hour then LPS (1 μg/mL) was added for 18 hours. Total cellular protein (20 μg) was then subjected to immunoblotting. Quantification of iNOS mRNA and protein expression involved normalization to GA3PDH (internal control) by densitometry. […] Thus, the dLGG-induced inhibition of NO production in LPS-stimulated macrophages is also mediated through suppression of both transcription and translation of iNOS.
# IκBα = IκBα phosphorylation and degradation in LPS-stimulated RAW 264.7 cells (Western blot); format: cell-based, murine; details: dLGG 1 h, LPS 1 μg/mL 30 min
# Description: as §1
# Cells were treated with various concentrations of dLGG for 1 h followed by the addition of LPS (1 μg/mL) for 30 min. Western blots was then conducted using antibodies for IκBα or phospho-IκBα.
# B16 melanoma = assay: In vivo inhibition of B16 melanoma growth in C57BL/6J mice; details: mouse, in vivo, ip
# Description: The chemopreventive effect of the CREa8 subfraction was evaluated on tumor growth using the B16 melanoma C57BL/6J mouse system. Six-week-old animals (4 groups of mice, 5 in each group) were used in this experiment. Group 1 mice (Sham control) were intraperitoneally (i.p.) injected with 20 μL of DMSO every 2 days throughout the experimental period, except 100 μL PBS was injected on day 0. Group 4 mice (Tumor control) were pre-treated with DMSO every 2 days, starting from day—14, for 2 weeks, inoculated with B16 tumor cells (1×10^6 cells/100 μL PBS) subcutaneously (s.c.) on the abdominal area on day 0, and then injected with DMSO every 2 days until day 21. Group 2 mice were i.p. pre-treated with CREa8 (10 mg/kg body weight per dose) every 2 days, starting from day—14, for 2 weeks, s.c. inoculated with B16 tumor cells on day 0, and then continuously treated with CREa8 (i.p.) every 2 days until day 21. Group 3 mice were similarly pre-treated with DMSO every 2 days for 2 weeks, inoculated with B16 tumor cells on day 0, and then treated with cisplatin (i.p.) every 2 days until day 21. The test mice were monitored daily, and body weights and tumor size (average of 2 dimensions) recorded every 2 days. At the end of the experiment (day 21), tumors were excised and weighed.
# The cancer prevention efficacy of the dLGG-rich fraction (CREa8) was examined in vivo in 4 groups of mice according to the method described above. Cisplatin, a cancer chemotherapeutic, was used as a reference control.
# [1] = test system: NO production in LPS-activated RAW 264.7 macrophages; assay: LPS-induced NO production in RAW 264.7 macrophages (Griess reaction); format: cell-based, murine; details: Mus musculus, RAW264.7
# Description: RAW 264.7 cells were treated with compound for 1 hour, and then incubated for 24 hours with or without LPS. Nitrite levels in cell culture medium were determined using the Griess reaction (Chiang et al. Br J Pharmacol 2005; 146:352-63; Schmidt et al. Determination of nitrite and nitrate by the Griess reaction. In: Feelisch M, Stamler J S, editors. Methods In Nitric Oxide Research. New York: John Wiley & Sons Inc.; 1996. p. 491-'7). Cell viability was examined using the MTT based assay (Scudiero et al. Cancer Res 1988; 48:4827-33).
# RAW 264.7 macrophage cells were treated with or without various concentrations of CREa8 extract for 1 hour, then LPS (1 μg/ml) was added and incubated for 24 hours. […] NO in the culture medium was measured. Percentage of cell viability was also determined using MTT assay. The data represent 3 experiments and are expressed as mean±SD. […]
# The inhibition of LPS-induced NO production by C. rabens extracts or purified dLGG was investigated in murine RAW 264.7 macrophages by determination of nitrite level (equivalent to NO level) in culture medium 24 hours after treatment. […] NO in the culture medium was measured using the Griess reagent. Survival of macrophages after treatment was measured using MTT assay and calculated by the following formula: viable cell number (%)=OD570 (treated cell culture)/0D570 (vehicle control)×100. […]
compound,measurement,setting,value
"CC/C=C\C/C=C\C/C=C\CCCCCCCC(=O)OC[C@H](CO[C@@H]1O[C@H](CO)[C@H](O)[C@H](O)[C@H]1O)OC(=O)CCCCCCC/C=C\C/C=C\C/C=C\CC [dLGG, 1,2-di-O-α-linolenoyl-3-O-β-galactopyranosyl-sn-glycerol]",Inhibition of COX-2 mRNA expression,COX-2 mRNA,~29%
same,iNOS protein level,iNOS protein,Little iNOS protein was detected
same,IκBα degradation,IκBα,prevented
same,LPS-induced phosphorylation of IκBα,IκBα,inhibited
same,Mortality or body weight loss on i.p. administration,B16 melanoma,without mortality or body weight loss
same,IC50,"[1]; RAW 264.7, LPS 1 μg/mL 24 h, read-out: 50% inhibitory concentration for LPS-induced NO production",~14.7 µM
same,IC50,"[1]; RAW 264.7, compound 1 h then LPS 1 μg/mL 24 h, read-out: IC50 for inhibiting LPS-induced NO production",~11.4 µg/mL

# From patent publication US8048455B2, “Treatment of cancer and inflammatory disorder” (Academia Sinica, priority 2006, dated 2011)
